# Data taken from PubChem BioAssay (NCI).
# “And” between values parts separate entries of the source, which are not always exact repeats. Equal values may be shown once.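 Cultured in 96-well plates, cells were exposed to test compound for 48 hours across five concentrations. GI50: concentration for 50% inhibition of growth. The concentration for full growth arrest is given as TGI.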
# Legend:
# Assay in all cases: inhibition of tumour cell growth, NCI panel, 48 h
# [1] = tested on: NCI-H522 lung
# [2] = tested on: SF-268 CNS
# [3] = tested on: NCI-H226 lung
# [4] = tested on: HCC-2998 colon
# [5] = tested on: UACC-257 melanoma
# [6] = tested on: NCI-H23 lung
# [7] = tested on: HL-60(TB) leukemia
# [8] = tested on: SK-MEL-28 melanoma
# [9] = tested on: LOX IMVI melanoma
# [10] = tested on: SF-539 CNS
SMILES,TGI [1] [µM],TGI [2],TGI [3] [µM],TGI [4] [µM],TGI [5],TGI [6],TGI [7],TGI [8],TGI [9],GI50 [1] [nM],GI50 [2],GI50 [3] [nM],GI50 [4] [nM],GI50 [5],GI50 [6],GI50 [7],GI50 [8],GI50 [10] [µM],TGI [10] [µM],GI50 [9] [nM]
COc1cccc(C(=O)O)c1Cc1cccc2ccccc12,> 100,> 100 µM,> 100,> 100,> 100 µM,> 100 µM,> 100 µM,> 100 µM,> 100 µM,,,,,,,,,,,
CCCCCCCCCCCCCCCC[N+](C)(C)C,0.329,0.483 µM and 3.12 µM,3.07,3.73,0.942 µM and 6.33 µM,1.51 µM and 3.8 µM,0.336 µM and 1.81 µM,1.72 µM and 6.88 µM,0.332 µM and 3.07 µM,139,0.177 µM and 1.21 µM,1130,1710,0.266 µM and 2.46 µM,292 nM and 1460 nM,148 nM and 371 nM,482 nM and 2240 nM,1.49,3.18,
C/C(=C\c1ccccc1)C(O)S(=O)(=O)O (stereo unspecified),> 100,> 100 µM,> 100,> 100,> 100 µM,> 100 µM,> 100 µM,> 100 µM,> 100 µM,,,,,,,,,,,
S=C1SC2(CCCCCC2)NC2=C1CCCCC2,,> 100 µM,52.4,> 100,67.1 µM,> 100 µM,38.5 µM,> 100 µM,> 100 µM,,,,,,,,,,> 100,
CC(=O)N1C(=O)C(=O)c2cc(Cl)ccc21,,> 100 µM,> 100,> 100,,> 100 µM,> 100 µM,> 100 µM,> 100 µM,,,,,,,,,,> 100,
O=C1c2ccccc2C(=O)N1C/C=N/NS(=O)(=O)c1ccc(Cl)cc1,> 100,> 100 µM,> 100,> 100,> 100 µM,> 100 µM,> 100 µM,,> 100 µM,,,,,,,,,,> 100,
COc1cc2c3c(n(CCCn4cccn4)c(=O)c2cc1OC)-c1cc2c(cc1C3=O)OCO2,63.7,> 100 µM,9.51,64,> 100 µM,4.38 µM,,> 100 µM,11.1 µM,2070,0.586 µM,922,7130,9.92 µM,807 nM,,5350 nM,0.56,5.08,728
COc1cccc(NC(=O)c2ccc(C(F)(F)F)nc2Nc2ccc(Cl)cc2C)c1,7.18,32.6 µM,34.8,18.7,26.2 µM,20 µM,,28.8 µM,23.4 µM,1280,13.8 µM,14700,2900,13.4 µM,6450 nM,,15000 nM,15.1,30.5,11300
COc1cc2c(C#N)n3c(c2cc1OC)C(=O)C(c1ccccc1)Oc1ccccc1-3 (stereo unspecified),,> 100 µM,> 100,> 100,,> 100 µM,,> 100 µM,> 100 µM,,3.32 µM,2900,> 100000,,3040 nM,,> 100000 nM,19.8,> 100,3180
COc1cccc2c1C(=O)c1c(O)c3c(c(O)c1C2=O)C[C@@](O)(C(=O)COC(=O)c1cccnc1)C[C@@H]3OC1CC(N)C(O)C(C)O1 (stereo partly specified),0.217,1.53 µM,,3.5,0.557 µM,1.02 µM,1.64 µM,0.689 µM,0.372 µM,57.4,0.155 µM,,454,0.172 µM,178 nM,146 nM,203 nM,0.0744,0.673,44.3
O=C(Oc1ccccc1Cl)c1cccnc1Nc1ccnc(C(F)(F)F)c1,23.3,33.6 µM,8.07,30,63.5 µM,23.7 µM,,46.8 µM,14.2 µM,6600,10.1 µM,2610,15600,21.4 µM,8790 nM,,20400 nM,13.4,39.8,3960
CC(C)[C@H](COC(C)(C)C)N=CN1CSc2ccccc21,> 100,> 100 µM,> 100,> 100,,> 100 µM,57.1 µM,> 100 µM,93.2 µM,,,,,,,,,,65.6,
C[C@]1(O)CC(=O)[C@]2(O)C3=C(C=C[C@]2(O)C1)C(=O)c1c(O)cccc1C3=O,,20.5 µM,3.69,20.7,3.21 µM,4.71 µM,4.5 µM,4.25 µM,5.77 µM,,5.16 µM,1690,7590,1.68 µM,1940 nM,2050 nM,2110 nM,4.67,17,2250
COc1ccc2c(CCNS(=O)(=O)c3ccccc3)c(C(C)=O)[nH]c2c1[N+](=O)[O-],> 100,> 100 µM,> 100,> 100,> 100 µM,> 100 µM,> 100 µM,,> 100 µM,,,,,,,,,,77.7,
CC(C)(C)OC(=O)N(CCCn1c2c(c3ccccc3c1=O)C(=O)c1ccccc1-2)CCN(CCCn1c2c(c3ccccc3c1=O)C(=O)c1ccccc1-2)C(=O)OC(C)(C)C,> 50,> 50 µM,> 50,,> 50 µM,> 50 µM,> 50 µM,> 50 µM,> 50 µM,21300,23.8 µM,> 50000,,> 50 µM,> 50000 nM,> 50000 nM,37000 nM,> 50,> 50,25200
Cn1c(-c2c(N)n(Cc3ccc(Cl)cc3)c3nc(C#N)c(C#N)nc23)nc2ccccc21,15.6,> 50 µM,,3.57,> 50 µM,2.48 µM,> 50 µM,13.9 µM,5.68 µM,2830,16.3 µM,,1080,13.5 µM,1180 nM,16900 nM,2860 nM,6.64,14.5,1140
